Measurements from patent US11091463B2, “Amide-substituted pyridinyltriazole derivatives and uses thereof” (BAYER PHARMA AKTIENGESELLSCHAFT, priority 2016, dated 2021).

Molecular target: T1, human V1a receptor (Homo sapiens, UniProt P37288)
T1 construct: expressed in transfected cells; host or cells: CHO K1 (ATCC), also stably transfected with a modified aequorin
Assay: Cellular in vitro assay for vasopressin receptor activity, V1a receptor cell line (photoprotein luminescence)
Format: cell-based
Conditions: Table 1A; compounds of the invention; selectivity ratio
Experimental: B-1. Cellular In Vitro Assay for Determining Vasopressin Receptor Activity
The identification of agonists and antagonists of the V1a and V2 vasopressin receptors from humans, rats and dogs as well as the quantification of the activity of the compounds of the invention is carried out using recombinant cell lines. These cell lines originally derive from a hamster's ovary epithelial cell (Chinese Hamster Ovary, CHO K1, ATCC: American Type Culture Collection, Manassas, Va. 20108, USA). The test cell lines constitutively express the human, rat or dog V1a or V2 receptors. In case of the Gαq-coupled V1a receptors, cells are also stably transfected with a modified form of the calcium-sensitive photoproteins aequorin (human and rat V1a) or obelin (dog V1a), which, after reconstitution with the cofactor coelenterazine, emit light when there are increases in free calcium concentrations [Rizzuto R, Simpson A W, Brini M, Pozzan T, Nature, 358, 325-327 (1992); Illarionov B A, Bondar V S, Illarionova V A, Vysotski E S, Gene, 153 (2), 273-274 (1995)]. The resulting vasopressin receptor cells react to stimulation of the recombinantly expressed V1a receptors by intracellular release of calcium ions, which can be quantified by the resulting photoprotein luminescence. The Gs-coupled V2 receptors are stably transfected into cell lines expressing the gene for firefly luciferase under control of a CRE-responsible promoter. Activation of V2 receptors induces the activation of the CRE-responsive promoter via cAMP increase, thereby inducing the expression of firefly luciferase. The light emitted by photoproteins of V1a cell lines as well as the light emitted by firefly luciferase of V2 cell lines corresponds to the activation or inhibition of the respective vasopressin receptor. The bioluminescence of the cell lines is detected using a suitable luminometer [Milligan G, Marshall F, Rees S, Trends in Pharmacological Sciences, 17, 235-237 (1996)].
Vasopressin V1a Receptor Cell Lines:
On the day before the assay, the cells are plated out in culture medium (DMEM/F12, 2% FCS, 2 mM glutamine, 10 mM HEPES, 5 μg/ml coelenterazine) in 384-well microtiter plates and kept in a cell incubator (96% humidity, 5% v/v CO2, 37° C.). On the day of the assay, test compounds in various concentrations are placed for 10 minutes in the wells of the microtiter plate before the agonist [Arg^8]-vasopressin at EC50 concentration is added. The resulting light signal is measured immediately in a luminometer.
Table 1A below lists individual IC50 values for the compounds of the invention (including racemic mixtures as well as separated enantiomers) that were obtained from cell lines transfected with the human V1a or V2 receptor: […]

T1 sequence (P37288 whole entry): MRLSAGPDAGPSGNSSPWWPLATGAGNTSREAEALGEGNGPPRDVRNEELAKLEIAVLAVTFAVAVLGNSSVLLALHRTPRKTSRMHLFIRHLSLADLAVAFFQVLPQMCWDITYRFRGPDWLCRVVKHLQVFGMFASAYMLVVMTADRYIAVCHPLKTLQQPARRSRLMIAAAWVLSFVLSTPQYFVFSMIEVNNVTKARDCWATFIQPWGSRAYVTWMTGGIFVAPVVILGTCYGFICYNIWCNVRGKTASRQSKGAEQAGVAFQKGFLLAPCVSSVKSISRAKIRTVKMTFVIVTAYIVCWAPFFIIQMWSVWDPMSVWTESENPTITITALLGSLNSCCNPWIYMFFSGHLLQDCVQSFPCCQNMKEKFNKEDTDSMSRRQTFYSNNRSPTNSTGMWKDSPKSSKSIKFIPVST

| ratio IC50 hV2/hV1a | SMILES |
| --- | --- |
| 85.9 | CCOC(=O)c1cccnc1-n1nc(Cn2nc(-c3ccc(Cl)cc3)n(C[C@H](O)C(F)(F)F)c2=O)nc1C(N)=O [Example 5, Ethyl 2-[5-carbamoyl-3-({3-(4-chlorophenyl)-5-oxo-4-[(2S)-3,3,3-trifluoro-2-hydroxypropyl]-4,5-dihydro-1H-1,2,4-triazol-1-yl}methyl)-1H-1,2,4-triazol-1-yl]nicotinate] |
| 43.9 | NC(=O)c1nc(Cn2nc(-c3ccc(Cl)cc3)n(C[C@H](O)C(F)(F)F)c2=O)nn1-c1cnccc1Cl [Example 6, 3-({3-(4-Chlorophenyl)-5-oxo-4-[(2S)-3,3,3-trifluoro-2-hydroxypropyl]-4,5-dihydro-1H-1,2,4-triazol-1-yl}methyl)-1-(4-chloropyridin-3-yl)-1H-1,2,4-triazole-5-carboxamide] |
| 117.3 | NC(=O)c1nc(Cn2nc(-c3ccc(Cl)cc3)n(C[C@H](O)C(F)(F)F)c2=O)nn1-c1cnccc1C(F)(F)F [Example 7, 3-({3-(4-Chlorophenyl)-5-oxo-4-[(2S)-3,3,3-trifluoro-2-hydroxypropyl]-4,5-dihydro-1H-1,2,4-triazol-1-yl}methyl)-1-[4-(trifluoromethyl)pyridin-3-yl]-1H-1,2,4-triazole-5-carboxamide] |
| 30.0 | NC(=O)c1cccnc1-n1nc(Cn2nc(-c3ccc(Cl)cc3)n(C[C@H](O)C(F)(F)F)c2=O)nc1C(N)=O [Example 9, 2-[5-carbamoyl-3-({3-(4-chlorophenyl)-5-oxo-4-[(2S)-3,3,3-trifluoro-2-hydroxypropyl]-4,5-dihydro-1H-1,2,4-triazol-1-yl}methyl)-1H-1,2,4-triazol-1-yl]nicotinamide] |

Continued, molecule first:

| SMILES | ratio IC50 hV2/hV1a |
| --- | --- |
| NC(=O)c1nc(Cn2nc(-c3ccc(Cl)cc3)n(C[C@H](O)C(F)(F)F)c2=O)nn1-c1ncccc1Cl [Example 1, 3-({3-(4-Chlorophenyl)-5-oxo-4-[(2S)-3,3,3-trifluoro-2-hydroxypropyl]-4,5-dihydro-1H-1,2,4-triazol-1-yl}methyl)-1-(3-chloropyridin-2-yl)-1H-1,2,4-triazole-5-carboxamide] | 38.2 |
| NC(=O)c1nc(Cn2nc(-c3ccc(Cl)cc3)n(C[C@H](O)C(F)(F)F)c2=O)nn1-c1ncccc1C(F)(F)F [Example 2, 3-({3-(4-Chlorophenyl)-5-oxo-4-[(2S)-3,3,3-trifluoro-2-hydroxypropyl]-4,5-dihydro-1H-1,2,4-triazol-1-yl}methyl)-1-[3-(trifluoromethyl)pyridin-2-yl]-1H-1,2,4-triazole-5-carboxamide] | 141.0 |
| NC(=O)c1nc(Cn2nc(-c3ccc(Cl)cc3)n(C[C@H](O)C(F)(F)F)c2=O)nn1-c1ncccc1OC(F)(F)F [Example 3, 3-({3-(4-Chlorophenyl)-5-oxo-4-[(2S)-3,3,3-trifluoro-2-hydroxypropyl]-4,5-dihydro-1H-1,2,4-triazol-1-yl}methyl)-1-[3-(trifluoromethoxy)pyridin-2-yl]-1H-1,2,4-triazole-5-carboxamide] | 54.7 |
| NC(=O)c1nc(Cn2nc(-c3ccc(Cl)cc3)n(C[C@H](O)C(F)(F)F)c2=O)nn1-c1ncccc1Br [Example 4, 1-(3-Bromopyridin-2-yl)-3-({3-(4-chlorophenyl)-5-oxo-4-[(2S)-3,3,3-trifluoro-2-hydroxypropyl]-4,5-dihydro-1H-1,2,4-triazol-1-yl}methyl)-1H-1,2,4-triazole-5-carboxamide] | 72.6 |
| CCOC(=O)c1ccncc1-n1nc(Cn2nc(-c3ccc(Cl)cc3)n(C[C@H](O)C(F)(F)F)c2=O)nc1C(N)=O [Example 8, Ethyl 3-[5-carbamoyl-3-({3-(4-chlorophenyl)-5-oxo-4-[(2S)-3,3,3-trifluoro-2-hydroxypropyl]-4,5-dihydro-1H-1,2,4-triazol-1-yl}methyl)-1H-1,2,4-triazol-1-yl]isonicotinate] | 35.0 |
